Measured values from patent US9187450B2, “Substituted pyridine compound” (Daiichi Sankyo Company, Limited, priority 2010, dated 2015).

Target: recombinant human CETP protein (Homo sapiens (Human), UniProt P11597)
Experiment: Test of CETP inhibition activity (in vitro, buffer-based)
Format: biochemical
Details: reconstituted HDL with [14C]-labeled cholesteryl ester, acceptor lipoprotein, 37° C.
Procedure: Test of CETP Inhibition Activity (In Vitro, Buffer-Based)
(1) Preparation of Reconstituted HDL
Cholesterol (1.125 μmol), phosphatidyl choline (4.5 μmol) and [^14C]-labeled cholesteryl ester (2.0 μCi; 40 μl) were taken in a glass test tube and well mixed with a vortex, and dried under a nitrogen gas current so that it formed a thin film. The obtained mixture was dissolved in ethanol (200 μl), which was designated as Solution A. A PBS solution [a mixed solution of Na2HPO4 (30 mM), KH2PO4 (8.8 mM), NaCl (60 mM) and EDTA (pH 7.4; 0.67 mM); 4 ml] was taken in a tube and the reaction solution was vigorously stirred with a vortex under a nitrogen current. The above-described Solution A was gently injected into this mixture with a syringe and the reaction solution was vigorously stirred with a vortex for 5 minutes under a nitrogen current. Sodium cholate ([…]; 0.38 ml) was added to the obtained mixture and the reaction solution was stirred for 2 minutes. ApoA-I protein (3 mg) was added to the obtained mixture and the reaction solution was stirred for 2 minutes. The obtained mixture was adjusted to 5 ml with the PBS solution and then dialyzed with the PBS solution. The obtained mixture was designated as the reconstituted HDL.
(2) Preparation of Acceptor Lipoprotein
NaBr was added to the plasma of a healthy person and the density of the mixture was adjusted to 1.019, and the mixture was subjected to density gradient centrifugation (40000 rpm, for 16 hours) to remove the fraction having a density of less than 1.019. NaBr was added to the obtained mixture and the density of the solution was adjusted to 1.063, and the solution was subjected to density gradient centrifugation (40000 rpm, 18 hours) to provide the fraction consisting of IDL (intermediate density lipoprotein) and LDL (1.019<density<1.063). The obtained fraction was dialyzed with the PBS solution. The obtained mixture was designated as the acceptor lipoprotein.
(3) Measurement of CETP Inhibition Activity
A recombinant human CETP protein (manufactured by Roar Biomedical Inc.; 4.5 ng), the acceptor lipoprotein described in (2) above (32.5 μg) and 5,5′-dithio-bis-(2-nitrobenzoic acid) (7 mM, 15 μl) were taken in a 96 well plate and the total amount of the mixture was adjusted to 48.5 μl with the PBS solution. The test compound [DMSO solution (concentration: 0.15, 0.5, 1.5, 5, 15, 50, 150 and 500 μM; 1.5 μl] was added to each well and the mixture was incubated in a thermostatic bath at 37° C. for 60 minutes. The reconstituted HDL (50 μl) described in (1) above was added to each well and the mixture was reacted in a thermostatic bath at 37° C. for 60 minutes. The 96 well plate was moved onto ice and a precipitation reagent [a mixed solution of magnesium chloride (60 mM) and 0.1% dextran sulfate [1/1 (v/v)]; 15 μl] was added to each well, and then the mixture was allowed to stand on ice for 15 minutes. The reaction solution (80 μl) in each well was moved to a filter plate and centrifuged at 1500 rpm for 1 minute, and the filtrate which passed through the filter was designated as the HDL fraction and the radioactivity thereof was measured with a scintillation counter. The percentage decrease in radioactivity in the case where the test compound was added in comparison with that in case where the test compound was not added was designated as the percentage CETP inhibition. The IC50 value was calculated from the percentage CETP inhibition.

recombinant human CETP protein, sequence (P11597 18-493): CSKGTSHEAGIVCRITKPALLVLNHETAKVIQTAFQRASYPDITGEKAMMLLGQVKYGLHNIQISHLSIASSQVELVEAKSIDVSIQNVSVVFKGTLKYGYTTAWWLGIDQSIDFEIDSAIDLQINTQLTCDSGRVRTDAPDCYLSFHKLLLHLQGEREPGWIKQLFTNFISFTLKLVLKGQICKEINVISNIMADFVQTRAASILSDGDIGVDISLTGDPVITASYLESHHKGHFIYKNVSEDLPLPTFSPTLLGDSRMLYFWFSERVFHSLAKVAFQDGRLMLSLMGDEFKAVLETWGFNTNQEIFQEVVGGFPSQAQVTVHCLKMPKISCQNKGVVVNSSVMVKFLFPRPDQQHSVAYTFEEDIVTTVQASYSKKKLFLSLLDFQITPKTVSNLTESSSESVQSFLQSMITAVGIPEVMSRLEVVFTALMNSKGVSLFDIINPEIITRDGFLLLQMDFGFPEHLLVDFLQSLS

Structure (SMILES) | IC50
CC1(C)Cc2nc(C3CCN(c4ncc(N5CCOCC5)cn4)CC3)c([C@@H](F)c3ccc(C(F)(F)F)cc3)c(C3CCC(F)(F)CC3)c2[C@@H](O)C1 (single isomer, unassigned) [Example 5, (−)-4-(4,4-Difluorocyclohexyl)-3-{fluoro[4-(trifluoromethyl)phenyl]methyl}-7,7-dimethyl-2-{1-[5-(morpholin-4-yl)pyrimidin-2-yl]piperidin-4-yl}-5,6,7,8-tetrahydroquinolin-5-ol] | 250 nM
CN1CC[C@@H](Oc2cnc(N3CCC(c4nc5c(c(C6CCC(F)(F)CC6)c4C(F)c4ccc(C(F)(F)F)cc4)C(O)CC(C)(C)C5)CC3)nc2)C1 (single isomer, unassigned) [Example 41] | 16 nM
CSc1cnc(N2CCC(c3nc4c(c(C5CCC(F)(F)CC5)c3[C@@H](F)c3ccc(C(F)(F)F)cc3)[C@@H](O)CC(C)(C)C4)CC2)nc1 (single isomer, unassigned) [Example 53, (−)-4-(4,4-Difluorocyclohexyl)-3-{fluoro[4-(trifluoromethyl)phenyl]methyl}-7,7-dimethyl-2-[1-(5-methylthiopyrimidin-2-yl)-piperidin-4-yl]-5,6,7,8-tetrahydroquinolin-5-ol] | 34 nM
CC1(C)Cc2nc(C3CCN(c4ncccn4)CC3)c([C@@H](F)c3ccc(C(F)(F)F)cc3)c(C3CCC(F)(F)CC3)c2[C@@H](O)C1 (single isomer, unassigned) [Example 1, (−)-4-(4,4-Difluorocyclohexyl)-3-{fluoro[4-(trifluoromethyl)phenyl]methyl}-7,7-dimethyl-2-[1-(pyrimidin-2-yl)-piperidin-4-yl]-5,6,7,8-tetrahydroquinolin-5-ol] | 83 nM
CCOCc1cnc(N2CCC(c3nc4c(c(C5CCC(F)(F)CC5)c3[C@@H](F)c3ccc(C(F)(F)F)cc3)[C@@H](O)CC(C)(C)C4)CC2)nc1 (single isomer, unassigned) [Example 26, (−)-4-(4,4-Difluorocyclohexyl)-2-{1-[5-(ethoxymethyl)pyrimidin-2-yl]piperidin-4-yl}-3-{fluoro[4-(trifluoromethyl)phenyl]methyl}-7,7-dimethyl-5,6,7,8-tetrahydroquinolin-5-ol] | 45 nM
CN1CCN(c2cnc(N3CCC(c4nc5c(c(C6CCC(F)(F)CC6)c4[C@@H](F)c4ccc(C(F)(F)F)cc4)[C@@H](O)CC(C)(C)C5)CC3)nc2)CC1 (single isomer, unassigned) [Example 8, (−)-4-(4,4-Difluorocyclohexyl)-3-{fluoro[4-(trifluoromethyl)phenyl]methyl}-7,7-dimethyl-2-{1-[5-(4-methylpiperazin-1-yl)pyrimidin-2-yl]piperidin-4-yl}-5,6,7,8-tetrahydroquinolin-5-ol] | 19 nM
CN(C)C(=O)c1cnc(N2CCC(c3nc4c(c(C5CCC(F)(F)CC5)c3[C@@H](F)c3ccc(C(F)(F)F)cc3)[C@@H](O)CC(C)(C)C4)CC2)nc1 (single isomer, unassigned) [Example 31, (−)-4-(4,4-Difluorocyclohexyl)-2-{1-[5-(dimethylcarbamoyl)pyrimidin-2-yl]piperidin-4-yl}-3-{fluoro[4-(trifluoromethyl)phenyl]methyl}-7,7-dimethyl-5,6,7,8-tetrahydroquinolin-5-ol] | 29 nM
CC1(C)Cc2nc(C3CCN(c4ncc(S(C)(=O)=O)cn4)CC3)c([C@@H](F)c3ccc(C(F)(F)F)cc3)c(C3CCC(F)(F)CC3)c2[C@@H](O)C1 (single isomer, unassigned) [Example 54, (−)-4-(4,4-Difluorocyclohexyl)-3-{fluoro[4-(trifluoromethyl)phenyl]methyl}-7,7-dimethyl-2-{1-[5-(methylsulphonyl)pyrimidin-2-yl]piperidin-4-yl}-5,6,7,8-tetrahydroquinolin-5-ol] | 32 nM
CC1(C)Cc2nc(C3CCN(c4ncc(OCCCS(C)(=O)=O)cn4)CC3)c([C@@H](F)c3ccc(C(F)(F)F)cc3)c(C3CCC(F)(F)CC3)c2[C@@H](O)C1 (single isomer, unassigned) [Example 45, (−)-4-(4,4-Difluorocyclohexyl)-3-{fluoro[4-(trifluoromethyl)phenyl]methyl}-7,7-dimethyl-2-(1-{5-[3-(methylsulphonyl)propoxy]pyrimidin-2-yl}piperidin-4-yl)-5,6,7,8-tetrahydroquinolin-5-ol] | 13 nM
COc1cnc(N2CCC(c3nc4c(c(C5CCC(F)(F)CC5)c3[C@@H](F)c3ccc(C(F)(F)F)cc3)[C@@H](O)CC(C)(C)C4)CC2)nc1 (single isomer, unassigned) [Example 3, (−)-4-(4,4-Difluorocyclohexyl)-3-{fluoro[4-(trifluoromethyl)phenyl]methyl}-2-[1-(5-methoxypyrimidin-2-yl)piperidin-4-yl]-7,7-dimethyl-5,6,7,8-tetrahydroquinolin-5-ol] | 51 nM
CC1(C)Cc2nc(C3CCN(c4ncc(OCC(C)(CO)CO)cn4)CC3)c([C@@H](F)c3ccc(C(F)(F)F)cc3)c(C3CCC(F)(F)CC3)c2[C@@H](O)C1 (single isomer, unassigned) [Example 50, (−)-4-(4,4-Difluorocyclohexyl)-3-{fluoro[4-(trifluoromethyl)phenyl]methyl}-2-(1-{5-[3-hydroxy-2-(hydroxymethyl)-2-methylpropoxy]pyrimidin-2-yl}piperidin-4-yl)-7,7-dimethyl-5,6,7,8-tetrahydroquinolin-5-ol] | 13 nM
CC1(C)Cc2nc(C3CCN(c4ncc(N5CCCCC5)cn4)CC3)c([C@@H](F)c3ccc(C(F)(F)F)cc3)c(C3CCC(F)(F)CC3)c2[C@@H](O)C1 (single isomer, unassigned) [Example 6, (−)-4-(4,4-Difluorocyclohexyl)-3-{fluoro[4-(trifluoromethyl)phenyl]methyl}-7,7-dimethyl-2-{1-[5-(piperidin-1-yl)pyrimidin-2-yl]piperidin-4-yl}-5,6,7,8-tetrahydroquinolin-5-ol] | 66 nM
CC(C)c1cnc(N2CCC(c3nc4c(c(C5CCC(F)(F)CC5)c3[C@@H](F)c3ccc(C(F)(F)F)cc3)[C@@H](O)CC(C)(C)C4)CC2)nc1 (single isomer, unassigned) [Example 12, 4-(4,4-Difluorocyclohexyl)-3-{fluoro[4-(trifluoromethyl)phenyl]methyl}-7,7-dimethyl-2-{1-[5-(propan-2-yl)pyrimidin-2-yl]piperidin-4-yl}-5,6,7,8-tetrahydroquinolin-5-ol] | 103 nM
CN(Cc1cnc(N2CCC(c3nc4c(c(C5CCC(F)(F)CC5)c3[C@@H](F)c3ccc(C(F)(F)F)cc3)[C@@H](O)CC(C)(C)C4)CC2)nc1)S(C)(=O)=O (single isomer, unassigned) [Example 51, (−)-4-(4,4-Difluorocyclohexyl)-3-{fluoro[4-(trifluoromethyl)phenyl]methyl}-7,7-dimethyl-2-[1-(5-{[methyl(methylsulphonyl)amino]methyl}pyrimidin-2-yl)piperidin-4-yl]-5,6,7,8-tetrahydroquinolin-5-ol] | 6 nM
CC1(C)Cc2nc(C3CCN(c4ncc(OC[C@H](O)CO)cn4)CC3)c([C@@H](F)c3ccc(C(F)(F)F)cc3)c(C3CCC(F)(F)CC3)c2[C@@H](O)C1 (single isomer, unassigned) [Example 40] | 11 nM
CC1(C)Cc2nc(C3CCN(c4ncc(C5CC5)cn4)CC3)c([C@@H](F)c3ccc(C(F)(F)F)cc3)c(C3CCC(F)(F)CC3)c2[C@@H](O)C1 (single isomer, unassigned) [Example 19, (−)-2-[1-(5-Cyclopropylpyrimidin-2-yl)piperidin-4-yl]-4-(4,4-difluorocyclohexyl)-3-{fluoro[4-(trifluoromethyl)phenyl]methyl}-7,7-dimethyl-5,6,7,8-tetrahydroquinolin-5-ol] | 198 nM
